According to ChEMBL document CHEMBL1201862, “PubChem BioAssay data set” (2004):
Activity calls are given as the source filed them.

How the values were obtained:
Cytochrome P450 2D6 = Cytochrome P450 2D6 (Homo sapiens, UniProt P10635);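 further: CYP2D6 member of a cytochrome P450 panel assay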
[1] = A Cell Based Secondary Assay To Explore Cytotoxicity of Compounds that Sensitize Mycobacterium Tuberculosis to Beta-Lactam Antibiotics.; type: functional
[2] = target: T1, Adenosylmethionine-8-amino-7-oxononanoate aminotransferase (Mycobacterium tuberculosis, UniProt P9WQ81); experiment: Mycobacterium tuberculosis BioA enzyme inhibitor Measured in Biochemical System Using Plate Reader - 2163-02_Inhibitor_Dose_CherryPick_Activity.; type: functional, Mycobacterium tuberculosis UT205
T1 sequence (P9WQ81 whole entry): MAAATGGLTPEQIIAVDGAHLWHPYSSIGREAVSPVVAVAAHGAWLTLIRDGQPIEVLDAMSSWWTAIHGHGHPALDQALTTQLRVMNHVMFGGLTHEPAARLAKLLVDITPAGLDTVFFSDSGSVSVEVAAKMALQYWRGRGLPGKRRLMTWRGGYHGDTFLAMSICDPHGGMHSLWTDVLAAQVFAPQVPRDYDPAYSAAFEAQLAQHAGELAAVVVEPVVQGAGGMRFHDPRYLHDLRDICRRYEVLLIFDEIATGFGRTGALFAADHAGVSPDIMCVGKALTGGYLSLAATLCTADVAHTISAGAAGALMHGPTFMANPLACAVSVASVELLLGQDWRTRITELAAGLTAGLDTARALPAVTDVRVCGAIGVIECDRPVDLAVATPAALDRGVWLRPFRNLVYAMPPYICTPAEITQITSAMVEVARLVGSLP

[3] = NIH3T3 cell viability loss – ATP luminescence, mouse fibroblasts, counter-screen, dose response (AID 2010); type: functional, cell-based;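 further: cells exposed to compound for about 90 hours before reading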
[4] = Trypanosoma cruzi growth suppression in host cells – NIH3T3 host cells, beta-gal luminescence, confirmation (AID 2044); type: functional, cell-based;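 further: intracellular parasites grown in NIH/3T3 mouse fibroblasts as host cells; luminescent beta-galactosidase reporter signal from transgenic T. cruzi replicating inside host cells; inhibitors lower the luminescence signal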
INS1 = experiment: INS-1E survival protection against cytokine death – cell-based, luminescence, retest, dose response (AID 449756); type: functional; details: Rattus norvegicus;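 further: cell death triggered by IL-1 beta plus TNF-alpha plus IFN-gamma mixture; protective hits raise ATP signal compared with cytokine alone wells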
[5] = viability loss in THP-1 monocytes – THP-1 cells, cytotoxicity control for Vif-APOBEC3G degradation inhibitor project, dose response (AID 1117359); type: functional; details: THP-1
Beta-galactosidase = Beta-galactosidase (Escherichia coli, UniProt Q8VNN2); experiment: PubChem AID 485352; type: functional
[6] = target: T2, Type-1 angiotensin II receptor (Homo sapiens, UniProt P30556); experiment: antagonism of angiotensin II type 1 receptor – cell-based, uHTS hits, selectivity assay for APJ receptor antagonist project, dose response (AID 463214); type: functional;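 further: antagonist potency against angiotensin II stimulated AT1 response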
T2 sequence (P30556 whole entry): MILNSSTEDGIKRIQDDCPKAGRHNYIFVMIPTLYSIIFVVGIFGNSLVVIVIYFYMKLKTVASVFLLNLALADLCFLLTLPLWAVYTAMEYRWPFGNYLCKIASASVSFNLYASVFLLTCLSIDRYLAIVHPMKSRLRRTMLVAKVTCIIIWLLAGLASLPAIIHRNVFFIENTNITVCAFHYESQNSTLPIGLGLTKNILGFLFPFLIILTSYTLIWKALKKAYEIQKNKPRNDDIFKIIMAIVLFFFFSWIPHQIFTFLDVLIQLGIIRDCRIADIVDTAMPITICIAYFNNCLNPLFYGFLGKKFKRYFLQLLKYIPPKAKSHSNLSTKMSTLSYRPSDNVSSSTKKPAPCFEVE

Caspase-3 [7] = target: T3, Caspase-3 (Homo sapiens, UniProt P42574); experiment: SAR Analysis of small molecule inhibitors of Sentrin-specific proteases (SENPs) using a Caspase-3 Selectivity assay. [Related pubchem assays (depositor defined):AID2540, AID2599, AID434973, AID489001]; type: functional
T3 sequence (P42574 whole entry): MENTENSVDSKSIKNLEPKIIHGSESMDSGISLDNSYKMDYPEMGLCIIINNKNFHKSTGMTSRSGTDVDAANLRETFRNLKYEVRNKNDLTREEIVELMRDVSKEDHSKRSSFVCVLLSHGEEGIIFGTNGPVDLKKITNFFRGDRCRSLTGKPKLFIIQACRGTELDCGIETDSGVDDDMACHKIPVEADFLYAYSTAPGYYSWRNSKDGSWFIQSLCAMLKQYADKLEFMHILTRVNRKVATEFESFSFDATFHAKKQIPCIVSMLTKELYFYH

[8] = target: T4, Sentrin-specific protease 6 (Homo sapiens, UniProt Q9GZR1); experiment: SAR Analysis of small molecule inhibitors of Sentrin-specific protease 6 (SENP6) using a Luminescent assay. [Related pubchem assays (depositor defined):AID2582, AID2599]; type: functional
T4 sequence (Q9GZR1 whole entry): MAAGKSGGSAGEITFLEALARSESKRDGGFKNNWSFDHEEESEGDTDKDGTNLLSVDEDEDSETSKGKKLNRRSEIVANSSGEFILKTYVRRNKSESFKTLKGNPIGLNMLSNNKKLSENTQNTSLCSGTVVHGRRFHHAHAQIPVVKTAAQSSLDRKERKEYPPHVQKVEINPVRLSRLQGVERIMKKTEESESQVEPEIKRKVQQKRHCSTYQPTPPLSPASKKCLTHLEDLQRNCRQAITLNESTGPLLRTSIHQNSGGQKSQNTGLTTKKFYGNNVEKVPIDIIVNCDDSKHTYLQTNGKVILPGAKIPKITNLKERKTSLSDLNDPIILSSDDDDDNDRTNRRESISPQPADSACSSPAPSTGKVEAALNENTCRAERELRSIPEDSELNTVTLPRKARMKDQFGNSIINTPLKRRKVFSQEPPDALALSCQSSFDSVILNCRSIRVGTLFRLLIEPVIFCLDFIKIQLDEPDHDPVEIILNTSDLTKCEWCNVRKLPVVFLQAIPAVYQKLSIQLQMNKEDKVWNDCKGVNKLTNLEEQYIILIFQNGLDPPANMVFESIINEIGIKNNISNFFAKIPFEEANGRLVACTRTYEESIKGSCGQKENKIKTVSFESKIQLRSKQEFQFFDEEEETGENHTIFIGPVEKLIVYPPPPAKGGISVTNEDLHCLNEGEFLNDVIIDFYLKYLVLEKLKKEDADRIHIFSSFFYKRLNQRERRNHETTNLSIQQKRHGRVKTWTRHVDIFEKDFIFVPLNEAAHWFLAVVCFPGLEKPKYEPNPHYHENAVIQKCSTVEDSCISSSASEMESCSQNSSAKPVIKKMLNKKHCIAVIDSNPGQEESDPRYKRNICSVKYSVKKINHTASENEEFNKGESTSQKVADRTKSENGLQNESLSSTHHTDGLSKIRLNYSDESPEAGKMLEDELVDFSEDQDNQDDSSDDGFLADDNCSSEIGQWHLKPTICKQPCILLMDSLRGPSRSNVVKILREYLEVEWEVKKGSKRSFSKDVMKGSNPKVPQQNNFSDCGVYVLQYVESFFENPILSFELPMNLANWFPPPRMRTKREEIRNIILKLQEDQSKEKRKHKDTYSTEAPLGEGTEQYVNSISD

[9] = target: T5, Sentrin-specific protease 7 (Homo sapiens, UniProt Q9BQF6); type: functional;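 further: Luminescence-based dose-response confirmation of ultra-high-throughput screening hits, measuring inhibition of SENP7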
T5 sequence (Q9BQF6 whole entry): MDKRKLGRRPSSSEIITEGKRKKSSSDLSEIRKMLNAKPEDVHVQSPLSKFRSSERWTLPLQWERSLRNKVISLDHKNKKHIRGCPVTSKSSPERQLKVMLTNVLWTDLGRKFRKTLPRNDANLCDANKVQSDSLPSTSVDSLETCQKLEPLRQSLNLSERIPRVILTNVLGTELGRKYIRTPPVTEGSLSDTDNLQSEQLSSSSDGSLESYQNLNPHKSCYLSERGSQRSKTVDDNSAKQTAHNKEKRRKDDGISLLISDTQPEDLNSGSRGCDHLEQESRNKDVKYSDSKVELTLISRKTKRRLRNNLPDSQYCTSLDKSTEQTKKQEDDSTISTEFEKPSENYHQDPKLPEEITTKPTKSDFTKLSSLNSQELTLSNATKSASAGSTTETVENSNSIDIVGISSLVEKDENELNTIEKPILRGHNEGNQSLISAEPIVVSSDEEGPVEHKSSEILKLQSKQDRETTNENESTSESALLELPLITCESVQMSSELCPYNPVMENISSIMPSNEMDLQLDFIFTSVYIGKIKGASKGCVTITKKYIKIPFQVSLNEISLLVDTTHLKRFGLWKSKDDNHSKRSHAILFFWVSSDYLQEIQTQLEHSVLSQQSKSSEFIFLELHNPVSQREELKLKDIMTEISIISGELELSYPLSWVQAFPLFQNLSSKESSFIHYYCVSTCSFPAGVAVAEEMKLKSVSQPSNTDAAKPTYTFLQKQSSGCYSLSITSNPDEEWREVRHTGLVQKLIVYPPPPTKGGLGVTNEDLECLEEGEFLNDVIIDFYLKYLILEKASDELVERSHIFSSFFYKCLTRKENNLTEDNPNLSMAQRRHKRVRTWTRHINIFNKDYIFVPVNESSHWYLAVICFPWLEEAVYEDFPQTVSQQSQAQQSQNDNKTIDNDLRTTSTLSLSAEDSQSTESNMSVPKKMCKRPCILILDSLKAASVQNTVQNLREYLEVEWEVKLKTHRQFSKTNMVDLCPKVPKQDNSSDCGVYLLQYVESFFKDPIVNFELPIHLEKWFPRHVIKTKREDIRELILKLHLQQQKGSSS

Caspase-3 [10] = target: T3, Caspase-3; type: functional
Streptokinase A = target: T6, Streptokinase A (Streptococcus pyogenes serotype M1, UniProt P10520); experiment: viability-normalized secreted streptokinase activity reduction – plasminogen activation absorbance, OD405, dose response (AID 1914); type: functional, Streptococcus pyogenes M1 GAS;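 further: secreted streptokinase activity via plasminogen activation per viability signal from cell pellet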
T6 sequence (P10520 whole entry): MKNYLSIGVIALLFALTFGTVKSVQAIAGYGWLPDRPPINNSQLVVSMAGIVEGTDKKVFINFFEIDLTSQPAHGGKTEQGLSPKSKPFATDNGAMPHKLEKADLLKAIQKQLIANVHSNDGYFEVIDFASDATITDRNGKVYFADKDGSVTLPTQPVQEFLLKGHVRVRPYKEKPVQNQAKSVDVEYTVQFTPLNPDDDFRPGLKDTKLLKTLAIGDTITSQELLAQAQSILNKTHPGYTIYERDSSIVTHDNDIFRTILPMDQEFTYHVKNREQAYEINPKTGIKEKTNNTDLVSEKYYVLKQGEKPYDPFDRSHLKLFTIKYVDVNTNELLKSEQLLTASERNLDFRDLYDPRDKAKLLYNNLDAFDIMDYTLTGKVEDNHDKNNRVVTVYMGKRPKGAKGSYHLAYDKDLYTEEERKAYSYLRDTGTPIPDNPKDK

[11] = target: T4, Sentrin-specific protease 6; type: functional
[12] = target: T5, Sentrin-specific protease 7; experiment: inhibition of human SENP7 cleavage activity – biochemical, luminescence, SAR follow-up (AID 504497); type: functional
[13] = target: T7, Sentrin-specific protease 8 (Homo sapiens, UniProt Q96LD8); type: functional;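 further: luminescence read-out of SENP8 inhibition, dose-response confirmation following an ultra-high-throughput screen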
T7 sequence (Q96LD8 whole entry): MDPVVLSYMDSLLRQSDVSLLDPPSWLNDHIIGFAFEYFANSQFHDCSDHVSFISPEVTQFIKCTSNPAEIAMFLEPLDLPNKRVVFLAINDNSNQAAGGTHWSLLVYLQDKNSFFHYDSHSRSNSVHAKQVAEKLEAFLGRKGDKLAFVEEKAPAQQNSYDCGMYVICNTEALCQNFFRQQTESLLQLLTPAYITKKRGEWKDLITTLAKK

[14] = system: Streptococcus sp. 'group A'; experiment: Streptococcus pyogenes SK(-)GAS viability under kanamycin – luminescence, BacTiterGlo, confirmation, counter-screen for streptokinase expression inhibitor project, dose response (AID 1900); type: functional, organism-based
Streptococcus = experiment: GAS UMAA2166 growth inhibition – luminescence, BacTiterGlo, counter-screen for streptokinase expression inhibitor project, dose response (AID 1915); type: functional, organism-based;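 further: potency for reduction of bacterial viability or growth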

Sequence of Beta-galactosidase (Q8VNN2 whole entry): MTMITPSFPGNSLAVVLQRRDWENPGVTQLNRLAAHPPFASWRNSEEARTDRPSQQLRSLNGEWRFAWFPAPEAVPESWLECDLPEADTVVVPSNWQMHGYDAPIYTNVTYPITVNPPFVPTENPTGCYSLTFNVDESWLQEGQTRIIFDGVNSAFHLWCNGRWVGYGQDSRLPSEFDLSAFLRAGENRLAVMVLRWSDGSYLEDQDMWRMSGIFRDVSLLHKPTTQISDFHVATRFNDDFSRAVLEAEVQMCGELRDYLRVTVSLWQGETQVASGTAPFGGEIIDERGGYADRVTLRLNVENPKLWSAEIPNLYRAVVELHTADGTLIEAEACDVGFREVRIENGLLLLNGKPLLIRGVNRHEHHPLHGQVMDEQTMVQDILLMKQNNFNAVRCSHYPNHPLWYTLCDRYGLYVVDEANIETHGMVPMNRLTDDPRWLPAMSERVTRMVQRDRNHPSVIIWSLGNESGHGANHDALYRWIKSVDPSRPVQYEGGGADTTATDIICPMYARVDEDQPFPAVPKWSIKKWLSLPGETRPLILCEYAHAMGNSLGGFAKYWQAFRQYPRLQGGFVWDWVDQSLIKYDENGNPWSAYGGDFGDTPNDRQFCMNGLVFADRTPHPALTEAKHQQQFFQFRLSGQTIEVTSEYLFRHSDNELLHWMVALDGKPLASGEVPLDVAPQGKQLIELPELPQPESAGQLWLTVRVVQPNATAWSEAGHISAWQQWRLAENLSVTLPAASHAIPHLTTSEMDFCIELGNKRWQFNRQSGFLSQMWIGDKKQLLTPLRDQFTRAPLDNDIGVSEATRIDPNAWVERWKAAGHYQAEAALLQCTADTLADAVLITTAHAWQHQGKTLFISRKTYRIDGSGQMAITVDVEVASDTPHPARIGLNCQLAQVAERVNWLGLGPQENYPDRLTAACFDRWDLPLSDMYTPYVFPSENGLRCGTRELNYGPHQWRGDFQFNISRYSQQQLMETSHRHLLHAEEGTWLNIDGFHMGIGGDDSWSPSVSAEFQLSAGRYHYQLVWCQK
Sequence of Cytochrome P450 2D6 (P10635 whole entry): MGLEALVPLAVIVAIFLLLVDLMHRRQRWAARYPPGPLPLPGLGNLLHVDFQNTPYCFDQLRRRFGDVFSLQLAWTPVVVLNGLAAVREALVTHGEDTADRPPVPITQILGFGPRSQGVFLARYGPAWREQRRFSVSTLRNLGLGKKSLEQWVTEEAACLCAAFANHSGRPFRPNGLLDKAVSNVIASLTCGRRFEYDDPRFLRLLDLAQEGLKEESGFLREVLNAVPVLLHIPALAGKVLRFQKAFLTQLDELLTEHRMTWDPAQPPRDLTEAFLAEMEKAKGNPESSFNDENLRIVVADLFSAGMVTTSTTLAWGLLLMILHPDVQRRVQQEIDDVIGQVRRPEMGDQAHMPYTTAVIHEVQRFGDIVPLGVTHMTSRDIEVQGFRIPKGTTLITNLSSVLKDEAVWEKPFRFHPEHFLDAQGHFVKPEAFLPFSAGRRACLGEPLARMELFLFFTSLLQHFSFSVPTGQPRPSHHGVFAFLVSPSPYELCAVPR

SMILES: CCCn1nnnc1NC(=O)COc1ccc(Cl)cc1C
- AC50 (Cytochrome P450 2D6): 25.1 µM (inconclusive)
- CC50 [1]: 34.5 µM (active)

SMILES: COC(=O)c1c(C(=O)OC)c(-c2ccc(F)cc2)n2c1C[S+]([O-])C2 (stereo not given)
- AC50 [2]: 10.3 µM (active)

SMILES: NC(=O)c1ccc(Oc2cccc3cccnc23)c([N+](=O)[O-])c1
- AC50 [2]: 2.3 µM (active)

SMILES: COc1cc(OC)c(OC)cc1CNCCc1ccc(F)cc1
- EC50 (cells): 0.055 µM (active)
- EC50 [3]: > 60 µM (not active)
- EC50 [4]: < 0.1 µM (active)

SMILES: CCOC(=O)c1ccc(-[n+]2c(-c3ccccc3)cc(-c3ccccc3)cc2-c2ccccc2)cc1.[O-][Cl+3]([O-])([O-])[O-]
- EC50 (cells): 0.047 µM (active)
- EC50 [3]: > 60 µM (not active)
- AC50 (INS1): 2.02 µM (active)
- EC50 [4]: < 0.1 µM (active)

SMILES: CCOC(=O)c1ccc(N2C(=O)c3[nH]nc(C)c3C2c2ccc(OC)cc2OC)cc1 (stereo not given)
- CC50 [5]: > 40 µM (active)

SMILES: Nc1ccc(N=Nc2ccccc2O)c(N)c1
- CC50 [1]: > 40 µM (active)

SMILES: CN(C)CCN(Cc1ccco1)C(=O)c1cc2c(Cl)nc3ccccc3c2s1
- EC50 (cells): 0.115 µM (active)
- EC50 (Beta-galactosidase): > 40 µM (inactive)
- EC50 [3]: 9.5 µM (active)
- EC50 [4]: < 0.1 µM (active)
- IC50 [6]: 33.8 µM (not active)

SMILES: CN(C)CCNc1ccc(-c2nn(C)c(=O)c3ccccc23)cc1[N+](=O)[O-]
- EC50 (cells): 0.062 µM (active)
- EC50 [3]: > 60 µM (not active)
- EC50 [4]: < 0.1 µM (active)

SMILES: Cc1cccc(C(=O)Nc2scc(-c3ccc(Br)cc3)c2C(=O)O)c1
- IC50 (Caspase-3 [7]): 4.89 µM (active)
- IC50 [8]: 3.42 µM (active)
- IC50 [9]: > 100 µM (inactive)
- IC50 (Caspase-3 [10]): 5.21 µM (active)
- EC50 (Streptokinase A): > 150 µM (not active)
- IC50 [11]: 4.28 µM (active)
- IC50 [12]: 6.38 µM (active)
- IC50 [13]: 3.72 µM (active)
- EC50 [14]: 2.33 µM (active)
- EC50 (Streptococcus): 8.14 µM (active)

SMILES: C[C@H](CO)N1C[C@H](C)[C@@H](CN(C)Cc2ccc3c(c2)OCO3)Oc2ccc(NC(=O)Cn3cnnn3)cc2CC1=O
- AC50 [2]: 13 µM (active)

SMILES: COC(=O)C[C@@H]1CC[C@@H]2[C@H](COC[C@@H](O)CN2C(=O)Nc2cccc(F)c2)O1
- AC50 [2]: 10 µM (active)

SMILES: O=C(c1cccc(F)c1)N1CC[C@@H]2[C@H]1c1cc(-c3cccc(F)c3)ccc1N[C@@H]2CO
- AC50 [2]: 5.94 µM (active)

SMILES: O=C(N/N=C1\CCC\C1=C(/O)C(F)(F)F)c1cccc(O)c1
- CC50 [1]: 32.2 µM (active)
